# Data from PubChem BioAssay (NCI).
#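 How tested: cells in 96-well plates exposed to compound for 48 hours at five concentrations. TGI: concentration producing complete growth inhibition.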
# Key:
# Assay in all cases: NCI anticancer screen, dose series, 48 h
# 786-0 renal = system: 786-0 renal
# A498 renal = system: A498 renal
# A549 NSCLC = system: A549 NSCLC
# ACHN renal = system: ACHN renal
# CAKI-1 renal = system: CAKI-1 renal
# CCRF-CEM leukemia = system: CCRF-CEM leukemia
# COLO 205 colon = system: COLO 205 colon
# DLD-1 colon = system: DLD-1 colon
# DMS 114 small cell lung = system: DMS 114 small cell lung
# DMS 273 small cell lung = system: DMS 273 small cell lung
# EKVX NSCLC = system: EKVX NSCLC
# HCC-2998 colon = system: HCC-2998 colon
# HCT-116 colon = system: HCT-116 colon
# HCT-15 colon = system: HCT-15 colon
# HL-60(TB) leukemia = system: HL-60(TB) leukemia
# HOP-18 NSCLC = system: HOP-18 NSCLC
# HOP-62 NSCLC = system: HOP-62 NSCLC
# HOP-92 NSCLC = system: HOP-92 NSCLC
# HT29 colon = system: HT29 colon
# IGROV1 ovarian = system: IGROV1 ovarian
# K-562 leukemia = system: K-562 leukemia
# KM12 colon = system: KM12 colon
# KM20L2 colon = system: KM20L2 colon
# LOX IMVI melanoma = system: LOX IMVI melanoma
# LXFL 529 NSCLC = system: LXFL 529 NSCLC
# M14 melanoma = system: M14 melanoma
# M19-MEL melanoma = system: M19-MEL melanoma
# MALME-3M melanoma = system: MALME-3M melanoma
# MOLT-4 leukemia = system: MOLT-4 leukemia
# NCI-H23 lung = system: NCI-H23 lung
# NCI-H460 lung = system: NCI-H460 lung
# OVCAR-3 ovarian = system: OVCAR-3 ovarian
# OVCAR-4 ovarian = system: OVCAR-4 ovarian
# OVCAR-5 ovarian = system: OVCAR-5 ovarian
# OVCAR-8 ovarian = system: OVCAR-8 ovarian
# RPMI-8226 leukemia = system: RPMI-8226 leukemia
# RXF 393 renal = system: RXF 393 renal
# SF-268 CNS = system: SF-268 CNS
# SF-295 CNS = system: SF-295 CNS
# SF-539 CNS = system: SF-539 CNS
# SK-MEL-2 melanoma = system: SK-MEL-2 melanoma
# SK-MEL-5 melanoma = system: SK-MEL-5 melanoma
# SK-OV-3 ovarian = system: SK-OV-3 ovarian
# SN12C renal = system: SN12C renal
# SNB-19 CNS = system: SNB-19 CNS
# SNB-75 CNS = system: SNB-75 CNS
# SNB-78 CNS = system: SNB-78 CNS
# SW-620 colon = system: SW-620 colon
# TK-10 renal = system: TK-10 renal
# U251 CNS = system: U251 CNS
# UACC-257 melanoma = system: UACC-257 melanoma
# UACC-62 melanoma = system: UACC-62 melanoma
# UO-31 renal = system: UO-31 renal
# XF 498 CNS = system: XF 498 CNS
compound,measurement,setting,value
Nc1ncnc2c1ncn2C1OC(CSCc2ccc(Cl)cc2)C(O)C1O (centres undefined),TGI,786-0 renal,> 100 µM
same,TGI,A498 renal,96 µM
same,TGI,A549 NSCLC,> 100 µM
same,TGI,ACHN renal,> 100 µM
same,TGI,CAKI-1 renal,54 µM
same,TGI,CCRF-CEM leukemia,> 100 µM
same,TGI,COLO 205 colon,> 100 µM
same,TGI,DLD-1 colon,> 100 µM
same,TGI,DMS 114 small cell lung,59.7 µM
same,TGI,DMS 273 small cell lung,84.7 µM
same,TGI,EKVX NSCLC,> 100 µM
same,TGI,HCC-2998 colon,> 100 µM
same,TGI,HCT-116 colon,61.4 µM
same,TGI,HCT-15 colon,> 100 µM
same,TGI,HL-60(TB) leukemia,62.2 µM
same,TGI,HOP-18 NSCLC,> 100 µM
same,TGI,HOP-62 NSCLC,64.3 µM
same,TGI,HOP-92 NSCLC,32.3 µM
same,TGI,HT29 colon,> 100 µM
same,TGI,IGROV1 ovarian,> 100 µM
same,TGI,K-562 leukemia,> 100 µM
same,TGI,KM12 colon,77.4 µM
same,TGI,KM20L2 colon,> 100 µM
same,TGI,LOX IMVI melanoma,> 100 µM
same,TGI,LXFL 529 NSCLC,48.3 µM
same,TGI,M14 melanoma,36.7 µM
same,TGI,M19-MEL melanoma,> 100 µM
same,TGI,MALME-3M melanoma,> 100 µM
same,TGI,MOLT-4 leukemia,46 µM
same,TGI,NCI-H23 lung,71.5 µM
same,TGI,NCI-H460 lung,> 100 µM
same,TGI,OVCAR-3 ovarian,> 100 µM
same,TGI,OVCAR-4 ovarian,> 100 µM
same,TGI,OVCAR-5 ovarian,> 100 µM
same,TGI,OVCAR-8 ovarian,> 100 µM
same,TGI,RPMI-8226 leukemia,67.3 µM
same,TGI,RXF 393 renal,73.8 µM
same,TGI,SF-268 CNS,> 100 µM
same,TGI,SF-295 CNS,> 100 µM
same,TGI,SF-539 CNS,> 100 µM
same,TGI,SK-MEL-2 melanoma,68.7 µM
same,TGI,SK-MEL-5 melanoma,90.9 µM
same,TGI,SK-OV-3 ovarian,> 100 µM
same,TGI,SN12C renal,> 100 µM
same,TGI,SNB-19 CNS,> 100 µM
same,TGI,SNB-75 CNS,58.5 µM
same,TGI,SNB-78 CNS,> 100 µM
same,TGI,SW-620 colon,> 100 µM
same,TGI,TK-10 renal,> 100 µM
same,TGI,U251 CNS,> 100 µM
same,TGI,UACC-257 melanoma,> 100 µM
same,TGI,UACC-62 melanoma,> 100 µM
same,TGI,UO-31 renal,56 µM
same,TGI,XF 498 CNS,85.9 µM
